Assay results taken from patent US8481551B2, “Gyrase and topoisomerase IV inhibitors” (Vertex Pharmaceuticals Incorporated, priority 2011, dated 2013).
Counter-ions that a name gives are not always drawn. Like-named read-outs stand apart in the source and are kept apart here.

How the values were obtained:
[1] = Pharmacokinetics, rat IV study; details: male Sprague Dawley rats, plasma, analyte as labelled; for AUC: male, Sprague Dawley, rat, iv
[2] = Pharmacokinetics, monkey IV study; details: male, cynomolgus monkey, plasma, 5 mg/kg, Compound W dosed IV 5 mg/kg in D5W, label = analyte
Nocardia caviae = test: MIC determination procedure for Mycobacterium species (Protocol 4); format: cell-based; details: Nocardia otitidiscaviarum
Clostridium difficile = test: Gyrase MIC, agar dilution method (Protocol 3); format: cell-based; details: for MIC / MIC90: Clostridioides difficile; for MIC: ATCCBAA1382, Clostridium difficile ATCC BAA-1382; for MIC90 / MIC Range: Clostridium difficile, 16 isolates tested
[3] = test system: Staphlococcus epidermidis; test: Gyrase MIC, microdilution broth method (Protocol 1); format: cell-based, Staphylococcus epidermidis; details: 35 isolates tested; for MIC90: Staphylococcus epidermidis
Haemophilus influenzae = test: Gyrase MIC against Gram negatives, microdilution broth method (Protocol 2); format: cell-based; details: for MIC90 / MIC Range: Haemophilus influenzae, 55 isolates tested
N. nova = test: MIC determination procedure for Mycobacterium species (Protocol 4); format: cell-based; details: N. nova 10
Moraxella catarrhalis = test: Gyrase MIC against Gram negatives, microdilution broth method (Protocol 2); format: cell-based; details: for MIC90 / MIC Range: Moraxella catarrhalis, 26 isolates tested
Streptococcus pneumoniae = test: Gyrase MIC, microdilution broth method (Protocol 1); details: for MIC: ATCC10015
Acinetobacter baumannii = test: Gyrase MIC against Gram negatives, microdilution broth method (Protocol 2); format: cell-based; details: for MIC90: Acinetobacter baumannii, 12 isolates tested
Neisseria gonorrhoeae = test: Gyrase MIC, agar dilution method (Protocol 3); format: cell-based; details: for MIC90 / MIC Range: Neisseria gonorrhoeae, 13 isolates tested
Escherichia coli = test: Gyrase MIC against Gram negatives, microdilution broth method (Protocol 2); format: cell-based; details: for MIC90: 12 isolates tested
Enterococcus faecalis = test: Gyrase MIC, microdilution broth method (Protocol 1); details: for MIC: ATCC29212
Neisseria meningitidis = test: Gyrase MIC, agar dilution method (Protocol 3); format: cell-based; details: 12 isolates tested
Klebsiella pneumoniae = test: Gyrase MIC against Gram negatives, microdilution broth method (Protocol 2); format: cell-based; details: for MIC90: Klebsiella pneumoniae, 12 isolates tested
Mycobacterium avium = test: MIC determination procedure for Mycobacterium species (Protocol 4); format: cell-based
[4] = Compound W 1 mg/kg single IV bolus in D5W
[5] = Compound W 5 mg/kg single IV bolus in D5W
[6] = 1 mg/kg, AUC, Compound W 1 mg/kg single IV bolus in D5W
[7] = 1 mg/kg, AUCextrap, Compound W 1 mg/kg single IV bolus in D5W
[8] = 5 mg/kg, AUC, Compound W 5 mg/kg single IV bolus in D5W
[9] = 5 mg/kg, AUCextrap, Compound W 5 mg/kg single IV bolus in D5W
[10] = ATCC49247, Haemophilus influenzae ATCC 49247
[11] = Haemophilus influenzae Rd0894 (AcrA-)
[12] = ATCC25238, Moraxella catarrhalis ATCC 25238
[13] = ATCC49143, Moraxella catarrhalis ATCC 49143
[14] = ATCC19606, Acinetobacter baumannii ATCC 19606
[15] = ATCCBAA1710, Acinetobacter baumannii ATCC BAA-1710
[16] = ATCC35541, Neisseria gonorrhoeae ATCC 35541
[17] = ATCC49226, Neisseria gonorrhoeae ATCC 49226
[18] = ATCC25922, Escherichia coli ATCC 25922
[19] = ATCC700603, Klebsiella pneumoniae ATCC 700603
[20] = ATCCBAA1705, Klebsiella pneumoniae ATCC BAA-1705

CCNC(=O)Nc1nc2cc(-c3cnc(C(C)(C)O)nc3)c(F)c([C@H]3CCCO3)c2[nH]1 [Compound 23, 1-ethyl-3-[6-fluoro-5-[2-(1-hydroxy-1-methyl-ethyl)pyrimidin-5-yl]-7-[(2R)-tetrahydrofuran-2-yl]-1H-benzimidazol-2-yl]urea]
Cl_obs [1, 4]: 54.9 mL/min/kg
Vss_obs [1, 4]: 3.8 L/kg
Cl_obs [1, 5]: 27.3 mL/min/kg
Vss_obs [1, 5]: 4.08 L/kg
AUC [1, 6]: 306 ng·h/mL
AUC [1, 7]: 310 ng·h/mL
AUC [1, 8]: 3040 ng·h/mL
AUC [1, 9]: 3060 ng·h/mL
AUC ([2]; AUCextrap): 3810 ng·h/mL

CCNC(=O)Nc1nc2cc(-c3cnc(C(C)(C)O)nc3)cc([C@H]3CCCO3)c2[nH]1 [Compound 13, methanesulfonic acid salt of 1-ethyl-3-[5-[2-(1-hydroxy-1-methyl-ethyl)pyrimidin-5-yl]-7-[(2R)-tetrahydrofuran-2-yl]-1H-benzimidazol-2-yl]urea]
MIC (Nocardia caviae; Nocardia caviae 2497, Protocol 4, read-out: MIC): 2 µg/mL
MIC (Clostridium difficile): 1 µg/mL
MIC90 (Clostridium difficile): 1 µg/mL
MIC Range (Clostridium difficile): 0.5 to 16 µg/mL
MIC Range [3]: 0.03 to 0.25 µg/mL
MIC90 [3]: 0.12 µg/mL
MIC (Haemophilus influenzae; [10]): 1 µg/mL
MIC (Haemophilus influenzae; [11]): 0.14 µg/mL
MIC90 (Haemophilus influenzae): 2 µg/mL
MIC Range (Haemophilus influenzae): 0.25 to 8 µg/mL
MIC (N. nova): 8 µg/mL
MIC (Moraxella catarrhalis; [12]): 0.071 µg/mL
MIC (Moraxella catarrhalis; [13]): 0.04 µg/mL
MIC90 (Moraxella catarrhalis): 0.12 µg/mL
MIC Range (Moraxella catarrhalis): 0.015 to 0.12 µg/mL
MIC90 (Streptococcus pneumoniae): 0.06 µg/mL
MIC Range (Streptococcus pneumoniae; 67 isolates tested, Protocol 1): 0.015 to 0.06 µg/mL
MIC (Streptococcus pneumoniae): 0.022 µg/mL
MIC (Acinetobacter baumannii; [14]): > 16 µg/mL
MIC (Acinetobacter baumannii; [15]): > 16 µg/mL
MIC90 (Acinetobacter baumannii): > 8 µg/mL
MIC (Neisseria gonorrhoeae; [16]): 1.3 µg/mL
MIC (Neisseria gonorrhoeae; [17]): 2.3 µg/mL
MIC90 (Neisseria gonorrhoeae): 1 µg/mL
MIC Range (Neisseria gonorrhoeae): 0.5-1^ μg/ml
MIC90 (Escherichia coli): > 8 µg/mL
MIC (Escherichia coli; [18]): 16 µg/mL
MIC (Escherichia coli; Escherichia coli AG100 WT): > 16 µg/mL
MIC (Escherichia coli; Escherichia coli AG100 tolC): 0.11 µg/mL
MIC (Escherichia coli; Escherichia coli CHE30): > 16 µg/mL
MIC (Escherichia coli; Escherichia coli CHE30 tolC): 0.5 µg/mL
MIC (Escherichia coli; Escherichia coli MC4100): > 16 µg/mL
MIC (Escherichia coli; Escherichia coli MC4100 tolC): 1 µg/mL
MIC90 (Enterococcus faecalis): 0.25 µg/mL
MIC Range (Enterococcus faecalis; 34 isolates tested, Protocol 1): 0.03 to 0.25 µg/mL
MIC (Enterococcus faecalis): 0.081 µg/mL
MIC90 (Neisseria meningitidis): 0.12 µg/mL
MIC Range (Neisseria meningitidis): 0.015 to 0.25 µg/mL
MIC (Klebsiella pneumoniae; [19]): > 16 µg/mL
MIC (Klebsiella pneumoniae; [20]): > 16 µg/mL
MIC90 (Klebsiella pneumoniae): > 8 µg/mL
MIC (Mycobacterium avium; M. avium 3404.4): 0.94 µg/mL
MIC (Mycobacterium avium; M. avium Far): 0.94 µg/mL
MIC (Mycobacterium avium; Mycobacterium avium 103): 0.47 µg/mL

CCNC(=O)Nc1nc2cc(-c3cnc(C(C)(C)O)nc3)c(F)c([C@H]3CCCO3)c2[nH]1 [Compound 23A, methanesulfonic acid salt of 1-ethyl-3-[6-fluoro-5-[2-(1-hydroxy-1-methyl-ethyl)pyrimidin-5-yl]-7-[(2R)-tetrahydrofuran-2-yl]-1H-benzimidazol-2-yl]urea]
MIC (Nocardia caviae): 0.125 µg/mL
MIC (Clostridium difficile): 0.38 µg/mL
MIC90 (Clostridium difficile): 0.25 µg/mL
MIC Range (Clostridium difficile): 0.06-4^ μg/ml
MIC Range [3]: 0.008 to 0.03 µg/mL
MIC90 [3]: 0.03 µg/mL
MIC (Haemophilus influenzae; [10]): 0.5 µg/mL
MIC (Haemophilus influenzae; [11]): 0.041 µg/mL
MIC90 (Haemophilus influenzae): 1 µg/mL
MIC Range (Haemophilus influenzae): 0.06-2^ μg/ml
MIC (N. nova): 1 µg/mL
MIC (Moraxella catarrhalis; [12]): ≤ 0.016 µg/mL
MIC (Moraxella catarrhalis; [13]): ≤ 0.016 µg/mL
MIC90 (Moraxella catarrhalis): 0.03 µg/mL
MIC Range (Moraxella catarrhalis): ≦0.004-0.03^ μg/ml
MIC (Acinetobacter baumannii; [14]): 8 µg/mL
MIC (Acinetobacter baumannii; [15]): 6 µg/mL
MIC90 (Acinetobacter baumannii): > 8 µg/mL
MIC (Neisseria gonorrhoeae; [16]): 0.42 µg/mL
MIC (Neisseria gonorrhoeae; [17]): 1 µg/mL
MIC90 (Neisseria gonorrhoeae): 0.25 µg/mL
MIC Range (Neisseria gonorrhoeae): 0.12 to 0.25 µg/mL
MIC90 (Escherichia coli): > 8 µg/mL
MIC (Escherichia coli; [18]): 12 µg/mL
MIC (Escherichia coli; Escherichia coli AG100 WT): 4 µg/mL
MIC (Escherichia coli; Escherichia coli AG100 tolC): 0.063 µg/mL
MIC (Escherichia coli; Escherichia coli CHE30): 8 µg/mL
MIC (Escherichia coli; Escherichia coli CHE30 tolC): 0.125 µg/mL
MIC (Escherichia coli; Escherichia coli MC4100): > 16 µg/mL
MIC (Escherichia coli; Escherichia coli MC4100 tolC): 0.25 µg/mL
MIC90 (Neisseria meningitidis): 0.03 µg/mL
MIC Range (Neisseria meningitidis): 0.008 to 0.06 µg/mL
MIC (Klebsiella pneumoniae; [19]): 16 µg/mL
MIC (Klebsiella pneumoniae; [20]): 12 µg/mL
MIC90 (Klebsiella pneumoniae): > 8 µg/mL
MIC (Mycobacterium avium; M. avium 3404.4): 0.23 µg/mL
MIC (Mycobacterium avium; M. avium Far): 0.23 µg/mL
MIC (Mycobacterium avium; Mycobacterium avium 103): 0.18 µg/mL

CCNC(=O)Nc1nc2cc(-c3cnc(C(C)(C)OP(=O)([O-])[O-])nc3)c(F)c([C@H]3CCCO3)c2[nH]1.[Na+].[Na+] [Compound W, disodium (R)-2-(5-(2-(3-ethylureido)-6-fluoro-7-(tetrahydrofuran-2-yl)-1H-benzo[d]imidazol-5-yl)pyrimidin-2-yl)propan-2-yl phosphate]
MIC (Haemophilus influenzae; [11]): 0.25 µg/mL
Cl_obs [1, 4]: 46.7 mL/min/kg
Vss_obs [1, 4]: 0.38 L/kg
Cl_obs [1, 5]: 84.6 mL/min/kg
Vss_obs [1, 5]: 5.8 L/kg
AUC [1, 6]: 416 ng·h/mL
AUC [1, 7]: 419 ng·h/mL
AUC [1, 8]: 1110 ng·h/mL
AUC [1, 9]: 1120 ng·h/mL
AUC ([2]; AUC): 5790 ng·h/mL
AUC ([2]; AUCextrap): 5830 ng·h/mL
MIC (Streptococcus pneumoniae): 0.25 µg/mL
MIC (Escherichia coli; Escherichia coli AG100 WT): > 16 µg/mL
MIC (Enterococcus faecalis): 1 µg/mL
